Experimental findings from patent publication US20250170120A1, “ALLOSTERIC STING MODULATORS AND METHODS OF USE” (THE BOARD OF REGENTS OF THE UNIVERSITY OF TEXAS SYSTEM, priority 2022, published 2025) are described below.

Assay [1] addresses T1, STING (Homo sapiens, UniProt Q86WV6, G230A/H232R/R293Q/R71H).
T1 construct: host or cells: THP-1 / THP1-Dual / THP1-Lucia ISG cells
Put plainly: Interferon production in THP-1 cells under basal conditions (no external stimulation). Conditions: 32 μM compound; no external stimulation; THP-1 cells. The format is cell-based. The text has this:
(§1) Methods of measuring STING activity and by extension, the activity of the compounds discussed herein, are known in the art. As an example, the STING pathway activity may be evaluated using reporter cell lines where a reporter gene (i.e., luciferase, GFP) is expressed under direct or indirect control of interferon response elements. For example, in an exemplary embodiment, the STING pathway can be measured using THP1-Dual™ cells (InvivoGen) which express the Lucia gene (a secreted luciferase reporter gene) under the control of an ISG54 minimal promoter in conjunction with five IFN-stimulated response elements. The STING pathway, when activated, stimulates interferon release which, in this model, will increase luciferase expression in a detectable manner. When inhibited, interferon release will be decreased, reducing luciferase expression in a detectable manner. The compounds can optionally be tested in the presence of external stimulation (i.e., using cGAMP, a natural agonist of STING, or MSA-2).
Compounds UT017, UT018, UT019 and UT0122 were tested for their ability to interfere with STING signaling. Interferon production in the presence of increasing concentrations of UT017, UT018, UT019 or UT0122 were measured in THP-1 cell lines under basal conditions. […] Compound UT0122 was further tested in THP1-Lucia™ ISG cells for interferon production at varying concentration, in the presence of an increasing dose of a STING agonist cGAMP.
The STING pathway activity was evaluated in THP1-Dual™ cells (Invivogen). 1.5×10^5 THP1-Dual™ cells were seeded in 96-well plates and treated with the test compound followed by cGAMP (100 uM) or MSA-2 (10 uM, Science 2020, 369, eaba6098) 2 hours later. After incubating at 37° C. for 16 hours, the luciferase activity was measured by QUANTI-Luc™ (Invivogen).

Assay [2] addresses T1, STING. Kind of assay: STING pathway activity in THP1-Dual/THP-1 cells upon cGAMP or MSA-2 stimulation (luciferase/interferon readout). Format: cell-based. Conditions: THP-1 cells; for inhibition at 10 µM: 10 μM compound, cGAMP (100 μM) or MSA-2 (10 μM) stimulation; for Induction of interferon production in the presence of MSA2: 10 μM MSA2, increasing concentrations of compound.
Excerpt: as §1
The STING pathway activity was evaluated in THP1-Dual™ cells (Invivogen). […] After incubating at 37° C. for 16 hours, the luciferase activity was measured by QUANTI-Luc™ (Invivogen).

Some results are limits rather than exact numbers.

T1 sequence (Q86WV6 whole entry R71H/G230A/H232R/R293Q): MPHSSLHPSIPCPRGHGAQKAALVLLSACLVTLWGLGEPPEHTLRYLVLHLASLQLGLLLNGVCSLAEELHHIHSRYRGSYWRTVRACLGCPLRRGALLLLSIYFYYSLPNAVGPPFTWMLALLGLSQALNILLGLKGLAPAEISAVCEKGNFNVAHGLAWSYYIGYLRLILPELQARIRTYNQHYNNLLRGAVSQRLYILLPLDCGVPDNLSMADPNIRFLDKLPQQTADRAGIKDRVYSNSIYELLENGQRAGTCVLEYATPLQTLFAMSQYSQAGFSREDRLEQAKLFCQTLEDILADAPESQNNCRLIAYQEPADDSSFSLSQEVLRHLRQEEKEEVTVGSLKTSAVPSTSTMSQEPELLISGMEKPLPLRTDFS

Turning to `C[C@@H](NC(=O)c1ccc2c(c1)N(Cc1c(F)cccc1Cl)C(=O)C2(C)C)c1c(F)cc(F)cc1F` [UT065, (R)-1-(2-chloro-6-fluorobenzyl)-3,3-dimethyl-2-oxo-N-(1-(2,4,6-trifluorophenyl)ethyl) indoline-6-carboxamide], the “Activity (inhibition under basal conditions)” value in assay [1] was “D*”.

As to `C[C@H](NC(=O)c1ccc2c(c1)N(Cc1c(F)cccc1Cl)C(=O)C2(C)C)c1c(F)cc(F)cc1F` [UT066, (S)-1-(2-chloro-6-fluorobenzyl)-3,3-dimethyl-2-oxo-N-(1-(2,4,6-trifluorophenyl)ethyl) indoline-6-carboxamide], the “Activity (inhibition under basal conditions)” value in assay [1] is given as “D*”.

As to `CC1(C)C(=O)N(Cc2c(Cl)cccc2OCc2cc(F)cc(F)c2)c2cc(C(F)(F)F)ccc21` [UT071a, 1-(2-chloro-6-((3,5-difluorobenzyl)oxy)benzyl)-3,3-dimethyl-6-(trifluoromethyl)indolin-2-one], the inhibition at 32 µM in assay [1] is < 50%.

As to `CC1(C)C(=O)N(Cc2c(Cl)cccc2OCc2cc(F)cc(F)c2)c2cc(F)ccc21` [UT072, 1-(2-chloro-6-((3,5-difluorobenzyl)oxy)benzyl)-6-fluoro-3,3-dimethylindolin-2-one], in assay [1], the inhibition at 32 µM is < 50%.

Turning to `CC1(C)C(=O)N(Cc2c(Cl)cccc2Oc2cc(F)cc(F)c2)c2cc(F)ccc21` [UT074, 1-(2-chloro-6-(3,5-difluorophenoxy)benzyl)-6-fluoro-3,3-dimethylindolin-2-one], the inhibition at 32 µM in assay [1] is < 50%.

`CC1(C)C(=O)N(Cc2c(F)cc(F)cc2F)c2cc(C(=O)NCc3cc4ccccc4o3)ccc21` [UT114, N-(benzofuran-2-ylmethyl)-3,3-dimethyl-2-oxo-1-(2,4,6-trifluorobenzyl)indoline-6-carboxamide]: the “Activity (inhibition under basal conditions)” value in assay [1] is “D*”.

With `CC1(C)C(=O)N(Cc2c(F)cccc2F)c2cc(-c3ncc(-c4c(F)cc(F)cc4F)o3)ccc21` [UT115, 1-(2,6-difluorobenzyl)-3,3-dimethyl-6-(5-(2,4,6-trifluorophenyl)oxazol-2-yl)indolin-2-one], the “Activity (inhibition under basal conditions)” value in assay [1] is “D*”.

With `CC1(C)C(=O)N(Cc2c(F)cccc2F)c2cc(-c3coc(-c4cccc(F)c4)n3)ccc21` [UT117, 1-(2,6-difluorobenzyl)-6-(2-(3-fluorophenyl)oxazol-4-yl)-3,3-dimethylindolin-2-one], the “Activity (inhibition under basal conditions)” value in assay [1] was “D*”.

For the compound `CC1(C)C(=O)N(Cc2c(F)cccc2F)c2cc(-c3cn(-c4ccccc4)nn3)ccc21` [UT118, 1-(2,6-difluorobenzyl)-3,3-dimethyl-6-(1-phenyl-1H-1,2,3-triazol-4-yl)indolin-2-one], in assay [1], the “Activity (inhibition under basal conditions)” value is “D*”.

In the case of `CC1(C)C(=O)N(Cc2c(F)cc(F)cc2F)c2cc(C(=O)NCc3cc4cc(F)c(F)cc4o3)ccc21` [UT120, N-((5,6-difluorobenzofuran-2-yl)methyl)-3,3-dimethyl-2-oxo-1-(2,4,6-trifluorobenzyl) indoline-6-carboxamide], in assay [1], the “Activity (inhibition under basal conditions)” value is listed as “D*”.

Regarding `Cc1nn(C)c(CN2C(=O)C(C)(C)c3ccc(C(=O)NCc4cc5ccccc5s4)cc32)c1Br` [UT121, N-(benzo[b]thiophen-2-ylmethyl)-1-((4-bromo-1,3-dimethyl-1H-pyrazol-5-yl)methyl)-3,3-dimethyl-2-oxoindoline-6-carboxamide], the “Activity (inhibition under basal conditions)” value in assay [1] is on record as “D*”.

With `CC1(C)C(=O)N(Cc2c(F)cccc2C(N)=O)c2cc(C(=O)NCc3c(F)cc(F)cc3F)ccc21` [UT126, 1-(2-carbamoyl-6-fluorobenzyl)-3,3-dimethyl-2-oxo-N-(2,4,6-trifluorobenzyl) indoline-6-carboxamide], the inhibition at 10 µM in assay [2] was < 50%.

For `CC1(C)C(=O)N(Cc2c(F)cc(F)cc2F)c2cc(C(=O)NCc3cc4ccccc4[nH]3)ccc21` [UT141, N-((1H-indol-2-yl)methyl)-3,3-dimethyl-2-oxo-1-(2,4,6-trifluorobenzyl)indoline-6-carboxamide], in assay [2], the inhibition at 10 µM was > 50% and the “Induction of interferon production in the presence of MSA2” value (“Induction of interferon production” below) is listed as “inhibited in a dose dependent manner”.

For `CC1(C)C(=O)N(Cc2c(F)cccc2C(F)(F)F)c2cc(C(=O)NCc3cc4ccccc4[nH]3)ccc21` [UT142, N-((1H-indol-2-yl)methyl)-1-(2-fluoro-6-(trifluoromethyl)benzyl)-3,3-dimethyl-2-oxoindoline-6-carboxamide], in assay [2], the inhibition at 10 µM was > 50% and the “Induction of interferon production” value was “inhibited in a dose dependent manner”.

Regarding `CC1(C)C(=O)N(Cc2c(Oc3cc(F)cc(F)c3)cccc2C(F)(F)F)c2cc(C(F)(F)F)ccc21` [UT149, 1-(2-(3,5-difluorophenoxy)-6-(trifluoromethyl)benzyl)-3,3-dimethyl-6-(trifluoromethyl)indolin-2-one], the inhibition at 10 µM in assay [2] is < 50%.

As to `Cc1nn(C)c(CN2C(=O)C(C)[C@@H](C)c3ccc(C(=O)NCc4cc5ccccc5[nH]4)cc32)c1Br` (stereo partly drawn) [UT151, (4R)-N-((1H-indol-2-yl)methyl)-1-((4-bromo-1,3-dimethyl-1H-pyrazol-5-yl)methyl)-3,4-dimethyl-2-oxo-1,2,3,4-tetrahydroquinoline-7-carboxamide], the inhibition at 10 µM in assay [2] was < 50%.

`CC1C(=O)N(Cc2c(F)cccc2C(F)(F)F)c2cc(C(=O)NCc3c(F)cc(F)cc3F)ccc2[C@@H]1C` (stereo partly drawn) [UT153, (4R)-1-(2-fluoro-6-(trifluoromethyl)benzyl)-3,4-dimethyl-2-oxo-N-(2,4,6-trifluorobenzyl)-1,2,3,4-tetrahydroquinoline-7-carboxamide]: the inhibition at 10 µM in assay [2] was < 50%.

For `CC1C(=O)N(Cc2c(F)cc(F)cc2F)c2cc(C(=O)NCc3cc4ccccc4[nH]3)ccc2[C@@H]1C` (stereo partly drawn) [UT156, (4R)-N-((1H-indol-2-yl)methyl)-3,4-dimethyl-2-oxo-1-(2,4,6-trifluorobenzyl)-1,2,3,4-tetrahydroquinoline-7-carboxamide], the inhibition at 10 µM in assay [2] was > 50%.

With `Cc1nn(C)c(CN2C(=O)C(C)(C)c3ccc(C(=O)NCc4cc5ccccc5[nH]4)cc32)c1C` [UT157, N-((1H-indol-2-yl)methyl)-3,3-dimethyl-2-oxo-1-((1,3,4-trimethyl-1H-pyrazol-5-yl)methyl)indoline-6-carboxamide], in assay [2], the inhibition at 10 µM was < 50% and the “Induction of interferon production” value is on record as “inhibited in a dose dependent manner”.

Regarding `CC1C(=O)N(Cc2c(F)cccc2C(F)(F)F)c2cc(C(=O)NCc3cc4ccccc4[nH]3)ccc2[C@@H]1C` (stereo partly drawn) [UT158, (4R)-N-((1H-indol-2-yl)methyl)-1-(2-fluoro-6-(trifluoromethyl)benzyl)-3,4-dimethyl-2-oxo-1,2,3,4-tetrahydroquinoline-7-carboxamide], in assay [2], the inhibition at 10 µM was < 50%.

Regarding `Cc1nn(C)c(CN2C(=O)C(C)[C@@H](C)c3ccc(C(=O)NCc4cc5ccccc5[nH]4)cc32)c1C` (stereo partly drawn) [UT160, (4R)-N-((1H-indol-2-yl)methyl)-3,4-dimethyl-2-oxo-1-((1,3,4-trimethyl-1H-pyrazol-5-yl)methyl)-1,2,3,4-tetrahydroquinoline-7-carboxamide], the inhibition at 10 µM in assay [2] was < 50%.

In the case of `CC1(C)C(=O)N(Cc2c(Oc3cc(F)cc(F)c3)cccc2C(F)(F)F)c2cc(C#N)ccc21` [UT200, 1-(2-(3,5-difluorophenoxy)-6-(trifluoromethyl)benzyl)-3,3-dimethyl-2-oxoindoline-6-carbonitrile], the inhibition at 10 µM in assay [2] was > 50%.

Regarding `CC1(C)C(=O)N(Cc2c(Oc3cc(F)cc(F)c3)cccc2C(F)(F)F)c2ccc(C#N)cc21` [UT201, 1-(2-(3,5-difluorophenoxy)-6-(trifluoromethyl)benzyl)-3,3-dimethyl-2-oxoindoline-5-carbonitrile], the inhibition at 10 µM in assay [2] was < 50%.

`CC1(C)C(=O)N(Cc2c(Oc3cc(F)cc(F)c3)cccc2C(F)(F)F)c2ccc(C(F)(F)F)cc21` [UT202, 1-(2-(3,5-difluorophenoxy)-6-(trifluoromethyl)benzyl)-3,3-dimethyl-5-(trifluoromethyl)indolin-2-one]: the inhibition at 10 µM in assay [2] was < 50%.

For `CC1(C)C(=O)N(Cc2c(Oc3cc(F)cc(F)c3)cccc2C(F)(F)F)c2cc3c(cc21)OCO3` [UT203, 5-(2-(3,5-difluorophenoxy)-6-(trifluoromethyl)benzyl)-7,7-dimethyl-5,7-dihydro-6H-[1,3]dioxolo[4,5-f]indol-6-one], the inhibition at 10 µM in assay [2] was > 50%.
